This is an account of results in US6420430B1, “Use of inhibitors of the sodium-hydrogen exchanger for preparing a medicament for preventing age-related disorders, and for prolonging life” (Aventis Pharma Deutschland GmbH, priority 1998, dated 2002).

Entries after “also recorded” stand apart in the source; their conditions may differ.

Data set [1] relates to isolated heart of WKY rats. As to the kind of experiment: Function and metabolism of the isolated heart (Langendorff) after 30 months of treatment. In kind it is in vivo, rat. Particulars: n = 10 per group. On the procedure: (§1) The interim analysis was carried out after 80% of the placebo-treated animals had died; this was the case after 30 months. 10 animals of each group were selected at random and anesthetized (hexobarbital, 80 mg·kg^−1, i.p.). Blood samples were then taken, and the thoracic aortae and the hearts were prepared and biochemically and/or functionally examined (Linz et al., 1997). In accordance with the method described by Langendorff, the hearts were perfused with an oxygen-saturated (95% O2, […]), non-circulating Krebs-Henseleit solution of the following composition (mmol/l): NaCl, 118; KCl, 4.7; CaCl2, 2.5; MgSO4, 1.6; NaHCO3, 24.9; KH2PO4, 1.2; glucose, 5.5; Na-pyruvate, 2.0, using a perfusion pressure of 60 mm Hg. The pressure in the left ventricle and the pulse frequency of the heart were measured using a balloon catheter. The coronary blood flow was determined using an electromagnetic flow gage. After a washing phase of 5 minutes, 1 ml of the coronary effluent was taken off for measuring the lactate concentrations and the lactate dehydrogenase and creatine kinase activities. The weights of the entire heart and the weights of the left and the right ventricle were then determined. The left ventricle was fixed in 10% strength neutral buffered formalin solution and embedded in paraffin for light-microscopic examination.

Data set [2] has as its system WKY rats. Kind of data set: Histomorphological examination of organs (heart, kidneys, skeletal muscles, eyes, liver). In kind it is in vivo, rat. Particulars: for age-related histomorphological organ changes (connective tissue in heart muscle, muscular dystrophy, tubulointerstitial kidney damage, retina atrophy): life-long treatment, WKY rats. The source says: The effect of a life-long treatment of young normotensive Wistar-Kyoto rats (WKY rats) with the sodium-hydrogen exchanger (“NHE”) inhibitor cariporide was investigated. In addition to the primary end point, the lifespan, surrogate parameters were studied and measured, for example the hypertrophy of the left ventricle of the heart, heart function, metabolism and endothelial function. In addition, organs, such as heart, kidneys, skeletal muscles and eyes, were examined histomorphologically. In accordance with the method described by Langendorff, the hearts were perfused with an oxygen-saturated (95% O2, […]), non-circulating Krebs-Henseleit solution of the following composition (mmol/l): NaCl, 118; KCl, 4.7; CaCl2, 2.5; MgSO4, 1.6; NaHCO3, 24.9; KH2PO4, 1.2; glucose, 5.5; Na-pyruvate, 2.0, using a perfusion pressure of 60 mm Hg. The pressure in the left ventricle and the pulse frequency of the heart were measured using a balloon catheter. The coronary blood flow was determined using an electromagnetic flow gage. After a washing phase of 5 minutes, 1 ml of the coronary effluent was taken off for measuring the lactate concentrations and the lactate dehydrogenase and creatine kinase activities. The weights of the entire heart and the weights of the left and the right ventricle were then determined. The left ventricle was fixed in 10% strength neutral buffered formalin solution and embedded in paraffin for light-microscopic examination.

In data set [3] the test system is normotensive Wistar-Kyoto rats (WKY rats). Kind of data set: Life-long treatment of normotensive WKY rats with cariporide via the feed: lifespan, cumulative survival rate, onset of age-related cancer. In kind it is in vivo, rat. The source says:
The effect of a life-long treatment of young normotensive Wistar-Kyoto rats (WKY rats) with the sodium-hydrogen exchanger (“NHE”) inhibitor cariporide was investigated. In addition to the primary end point, the lifespan, surrogate parameters were studied and measured, for example the hypertrophy of the left ventricle of the heart, heart function, metabolism and endothelial function. In addition, organs, such as heart, kidneys, skeletal muscles and eyes, were examined histomorphologically.
Ninety one-month-old WKY rats were randomized into two groups of placebo-treated (n=45) and cariporide-treated (n=45) rats. Cariporide was administered via the feed (active compound content 0.3%).
Male WKY rats were purchased from Møllegrad Denmark. The animals (3 per cage) were kept under standardized conditions with respect to temperature, atmospheric humidity and light. The rats had free access to a standard diet (Altromin® maintenance diet 1320, sodium content 0.2%) and received drinking water ad libitum. All experiments were carried out in accordance with the German Law on the Protection of Animals.
Ninety one-month-old animals were randomized into two groups of in each case 45 animals. After randomization, placebo and cariporide were administered to the rats via the drinking water and the feed, respectively, a proportion of 0.3% of the feed ensuring complete blockage of the NHE for 24 hours.
At intervals of 3 months, the body weight was determined and the blood pressure was measured using the tail plethysmography method. Events of death were registered after they had occurred.
All data are stated as mean±standard deviations. The survival data were analyzed in accordance with Kaplan-Meier, followed by a Mantel-Cox log-rank test. Furthermore, variance analysis (ANOVA) followed by a Student-Newman-Keuls test were employed. Null hypotheses were rejected at p<0.05.

Data set [4] concerns isolated thoracic aorta of WKY rats. Kind of data set: Vessel function on isolated rings of the thoracic aorta: endothelium-dependent relaxation by acetylcholine after KCl precontraction. In kind it is in vivo, rat. To be noted: KCl-precontracted aorta rings, 30-month-old rats. Here is the method: The interim analysis was carried out after 80% of the placebo-treated animals had died; this was the case after 30 months. 10 animals of each group were selected at random and anesthetized (hexobarbital, 80 mg·kg^−1, i.p.). Blood samples were then taken, and the thoracic aortae and the hearts were prepared and biochemically and/or functionally examined (Linz et al., 1997). The aorta was introduced into Tyrode's solution and freed from the surrounding fatty tissue. Segments of 2 mm were then sliced into rings, and these rings were introduced in a temperature-controlled (37° C.) organ bath (10 ml) with Tyrode's solution (composition in mol/l: NaCl 136.9; NaHCO3 11.9; KCl 2.7; CaCl2 0.5; MgCl2 2.0; NaHPO4 0.4; glucose 5.5; pH=7.4), and 95% O2/5% CO2 was bubbled through the solution. Each ring was mounted vertically between two fine steel clamps. The upper clamp was connected to a force sensor. The force signal was recorded using a computer-assisted biosignal analyzer. The aorta rings were suspended using a passive tension of 4.9 mN. After an adaptation period of one hour, the rings were contracted using potassium chloride (20 mmol/l). After a plateau had been reached, increasing concentrations of acetylcholine of 10^−8, 10^−7, 10^−6 and 10^−5 mol/l were added to the bath, triggering an endothelium dependent relaxation.

Data set [5] deals with WKY rats. Kind of data set: Interim analysis after 30 months: organ weights (heart, ventricles, kidneys, spleen). In kind it is in vivo, rat. Here is the method:
as §1

Data set [6] has as its system hypertensive rats. Particulars: hypertensive rats only; Circulation 1997; 96: 3164-3172; cited from earlier work.

Regarding `CC(C)c1ccc(C(=O)N=C(N)N)cc1S(C)(=O)=O.CS(=O)(=O)O` [Cariporide, cariporide], in data set [1], the “CF (coronary flow)” value was 34.6 ± 0.7 mL/min/g. For the same molecule, in data set [1], the “CK (creatine kinase in the coronary effluent)” value turned out to be 0.20 ± 0.02 mU/min/g heart wwt. Also, the HR in data set [1] turned out to be 182 ± 7 beats/min. The “LDH (lactate dehydrogenase in the coronary effluent)” value in data set [1] is 0.42 ± 0.02 mU/min/g heart wwt. Further, in data set [1], the “LVP (pressure in the left ventricle)” value turned out to be 111.5 ± 3.9 mm Hg. Also, the “Lactate in the coronary effluent” value in data set [1] came to 2.5 ± 0.13 μmol/min/g heart wwt. Also, in data set [1], the “dP/dtmax (constriction rate of the left ventricle)” value is listed as 4432 ± 121 mm Hg/s. Moreover, the “histomorphology of the livers” value in data set [2] (compared with control animals) is recorded as “unchanged”. Besides, the “age-related histomorphological organ changes (connective tissue in heart muscle, muscular dystrophy, tubulointerstitial kidney damage, retina atrophy)” value is reported as “drastically reduced” in data set [2] and “reduced drastically or prevented completely” in data set [2] (listed as cariporide). For the same molecule, the “Survival rate in percent” value in data set [3] (19 months) was 100%; in data set [3] (20 months) it was 100%; in data set [3] (21 months), 100%; in data set [3] (22 months), 100%; in data set [3] (23 months), 97%; in data set [3] (24 months), 97%. Moreover, the “Survival rate in percent” value in data set [3] (25 months) was 97%; in data set [3] (26 months), 97%; in data set [3] (27 months) it was 97%; in data set [3] (28 months) it was 97%; in data set [3] (29 months) it was 92%; in data set [3] (30 months) it was 89%. Further, the “Survival rate in percent” value turned out to be 80% in data set [3] (31 months); 75% in data set [3] (32 months); 67% in data set [3] (33 months); 59% in data set [3] (34 months); 49% in data set [3] (35 months); 38% in data set [3] (36 months). The “Survival rate in percent” value in data set [3] (37 months) is reported as 28%; in data set [3] (38 months), 17%; in data set [3] (39 months), 10%. In data set [3] (life-long treatment, 0.3% in feed, WKY rats, placebo 30 months), this molecule came in with a maximum lifespan of 39 months. Further, the “onset of age-related cancer” value in data set [3] (life-long treatment, WKY rats, listed as cariporide) is “delayed onset; also recorded: delayed significantly”. Also, the life extension in data set [3] (maximum lifespan versus placebo) was 30%. Besides, the “Vessel function on the aorta (relaxation in %)” value in data set [4] (ACh 10^−5 mol/l) is 95 ± 10%; in data set [4] (ACh 10^−6 mol/l) it was 85 ± 8 %; in data set [4] (ACh 10^−7 mol/l), 50 ± 6 %; in data set [4] (ACh 10^−8 mol/l), 5 ± 2%. Moreover, in data set [5] (n = 10/group), the “Heart weight, Heart (total)” value is listed as 235 ± 10 mg/100 g of body weight. Further, the “Heart weight, Left ventricle” value in data set [5] (n = 10/group) is given as 193 ± 8 mg/100 g of body weight. Further, in data set [5] (n = 10/group), the “Heart weight, Right ventricle” value is 36 ± 2 mg/100 g of body weight. Further, in data set [5] (versus placebo-treated animals), the “age-related hypertrophy of the heart” value is reported as “prevented”.

Turning to `CCOC(=O)[C@H](CCc1ccccc1)N[C@@H](C)C(=O)N1[C@H](C(=O)O)C[C@@H]2CCC[C@@H]21` [ramipril], in data set [6], the effect on lifespan entry is “life-prolonging effect”.
